Article PMC12540828, “Fexofenadine protects against osteoarthritis by targeting Smad2 and STAT1 to enhance anabolism and binding cPLA2 to inhibit catabolism” (Cell Death Discovery, 2025)

Legend:
cPLA2 = molecular target: T1, cPLA2 (Homo sapiens, UniProt P47712); assay: DARTS, Western blot; format: biochemical; details: chondrocyte lysate; protease digestion
T1 construct: gene PLA2G4A; endogenous, chondrocyte lysate, read by Western blot
T1 sequence (P47712 1-749): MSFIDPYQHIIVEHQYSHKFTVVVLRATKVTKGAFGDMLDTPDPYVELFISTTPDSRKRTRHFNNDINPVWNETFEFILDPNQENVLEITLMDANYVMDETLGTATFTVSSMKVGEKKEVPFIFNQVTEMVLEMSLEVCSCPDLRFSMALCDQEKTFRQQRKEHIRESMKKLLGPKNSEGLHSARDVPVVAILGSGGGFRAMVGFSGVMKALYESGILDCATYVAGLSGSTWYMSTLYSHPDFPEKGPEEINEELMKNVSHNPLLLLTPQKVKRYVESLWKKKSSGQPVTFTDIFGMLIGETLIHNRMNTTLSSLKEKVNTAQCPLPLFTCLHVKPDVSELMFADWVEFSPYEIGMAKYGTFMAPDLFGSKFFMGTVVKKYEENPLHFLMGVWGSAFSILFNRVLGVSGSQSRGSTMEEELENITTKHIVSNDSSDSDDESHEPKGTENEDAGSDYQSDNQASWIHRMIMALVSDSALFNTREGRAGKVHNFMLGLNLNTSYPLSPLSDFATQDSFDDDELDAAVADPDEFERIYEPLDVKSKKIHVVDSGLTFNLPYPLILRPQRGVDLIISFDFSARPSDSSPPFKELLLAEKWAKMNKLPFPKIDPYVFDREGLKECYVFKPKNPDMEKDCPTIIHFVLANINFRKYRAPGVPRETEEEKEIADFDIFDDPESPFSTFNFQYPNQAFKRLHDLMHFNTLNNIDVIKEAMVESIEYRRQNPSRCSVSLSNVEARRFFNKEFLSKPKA

[1] = molecular target: T2, STAT1 (purified recombinant, His-tagged) (Homo sapiens, UniProt P42224); assay: microscale thermophoresis; format: binding
T2 construct: purified recombinant, His-tagged, RED-NHS labelled
T2 sequence (P42224 2-750): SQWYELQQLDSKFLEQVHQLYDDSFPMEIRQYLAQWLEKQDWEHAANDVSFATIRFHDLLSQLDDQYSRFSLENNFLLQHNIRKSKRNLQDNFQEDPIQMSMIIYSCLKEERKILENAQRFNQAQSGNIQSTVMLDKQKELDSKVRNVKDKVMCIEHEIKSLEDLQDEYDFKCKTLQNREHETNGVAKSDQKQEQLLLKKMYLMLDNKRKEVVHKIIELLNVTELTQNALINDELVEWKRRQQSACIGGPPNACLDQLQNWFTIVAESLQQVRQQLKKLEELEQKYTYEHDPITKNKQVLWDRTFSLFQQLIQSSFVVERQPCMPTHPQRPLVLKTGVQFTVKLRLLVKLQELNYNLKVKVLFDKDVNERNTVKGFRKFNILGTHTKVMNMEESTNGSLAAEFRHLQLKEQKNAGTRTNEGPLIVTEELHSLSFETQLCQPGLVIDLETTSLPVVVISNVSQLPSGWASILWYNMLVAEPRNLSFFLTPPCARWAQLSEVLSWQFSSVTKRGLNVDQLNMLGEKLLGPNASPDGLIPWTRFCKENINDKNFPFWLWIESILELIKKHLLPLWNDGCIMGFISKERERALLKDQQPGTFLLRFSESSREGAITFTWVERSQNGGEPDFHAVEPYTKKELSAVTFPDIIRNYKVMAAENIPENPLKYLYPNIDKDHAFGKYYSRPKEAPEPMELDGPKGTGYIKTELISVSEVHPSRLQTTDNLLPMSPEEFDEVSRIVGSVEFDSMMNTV

[2] = molecular target: T3, Smad2 (endogenous, human chondrocytes) (Homo sapiens, UniProt Q15796); assay: CETSA and DARTS, Western blot; format: biochemical; details: CETSA with FFD 10 μM
T3 construct: endogenous, read by Western blot
T3 sequence (Q15796 2-467): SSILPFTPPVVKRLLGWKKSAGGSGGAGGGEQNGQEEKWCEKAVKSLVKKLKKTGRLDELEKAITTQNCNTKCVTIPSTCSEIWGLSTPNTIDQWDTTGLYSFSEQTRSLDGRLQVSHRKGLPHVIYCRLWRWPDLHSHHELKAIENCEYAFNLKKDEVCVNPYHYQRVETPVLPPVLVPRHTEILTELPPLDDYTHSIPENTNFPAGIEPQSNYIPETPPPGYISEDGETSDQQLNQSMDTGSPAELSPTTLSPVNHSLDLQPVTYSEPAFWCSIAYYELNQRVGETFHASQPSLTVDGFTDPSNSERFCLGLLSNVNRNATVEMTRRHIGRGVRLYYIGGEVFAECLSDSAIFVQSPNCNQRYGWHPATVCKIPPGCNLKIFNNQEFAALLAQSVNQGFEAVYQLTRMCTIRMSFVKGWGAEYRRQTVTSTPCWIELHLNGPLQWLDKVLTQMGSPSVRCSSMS

[3] = molecular target: T4, STAT1 (endogenous, human chondrocytes) (Homo sapiens, UniProt P42224); assay: CETSA, Western blot; format: biochemical; details: FFD 10 μM
T4 construct: endogenous, read by Western blot
T4 sequence (P42224 2-750): T2 sequence (P42224 2-750)

Kd [1]: 3 µM
Tm with FFD (control 50.49) [3]: 60.01 °C
SMILES: CC(C)(C(=O)O)c1ccc(C(O)CCCN2CCC(C(O)(c3ccccc3)c3ccccc3)CC2)cc1 (stereo not shown) [Fexofenadine]
DARTS, Western blot (cPLA2): cPLA2 remained undigested by the protease following incubation with FFD
CETSA and DARTS, Western blot [2]: DARTS and CETSA experiments subsequently confirmed the interaction between FFD and Smad2
